This assay can be described thus: Antagonist activity at P2Y12 receptor in human platelet rich plasma assessed as inhibition of ADP-induced platelet aggregation by light transmission aggregometry.
In general, IC50 refers to the concentration that gives 50% inhibition. As to `CCCCCOC(=O)N1CCN(C(=O)[C@H](CCC(=O)O)NC(=O)c2nc(-c3ccccc3)cc(N3CCN(C)CC3)n2)CC1` [(S)-4-(4-(4-methylpiperazin-1-yl)-6-phenylpyrimidine-2-carboxamido)-5-oxo-5-(4-(pentyloxycarbonyl)piperazin-1-yl)pentanoic acid], the IC50 worked out at 8100 nM. Take `CCCCCOC(=O)N1CCN(C(=O)[C@H](CCC(=O)O)NC(=O)c2nc(-c3ccccc3)cc(N3CCC(N4CCOCC4)CC3)n2)CC1` [(S)-4-(4-(4-morpholinopiperidin-1-yl)-6-phenylpyrimidine-2-carboxamido)-5-oxo-5-(4-(pentyloxycarbonyl)piperazin-1-yl)pentanoic acid]: the half-maximal inhibitory concentration (IC50) stood at 3000 nM. For `CCCCCOC(=O)N1CCN(C(=O)[C@H](CCC(=O)O)NC(=O)c2nc(OCC3CCN(C)CC3)cc(-c3ccccc3)n2)CC1` [(S)-4-(4-((1-methylpiperidin-4-yl)methoxy)-6-phenylpyrimidine-2-carboxamido)-5-oxo-5-(4-(pentyloxycarbonyl)piperazin-1-yl)pentanoic acid] the value was 3800 nM; for `CCCCCOC(=O)N1CCN(C(=O)[C@H](CCC(=O)O)NC(=O)c2nc(-c3ccccc3)cc(N3CCOCC3)n2)CC1` [(S)-4-(4-morpholino-6-phenylpyrimidine-2-carboxamido)-5-oxo-5-(4-(pentyloxycarbonyl)piperazin-1-yl)pentanoic acid], above 10000 nM; for `CCCCCOC(=O)N1CCN(C(=O)[C@H](CCC(=O)O)NC(=O)c2cc(NC3CCN(C(C)C)CC3)nc(-c3ccccc3)n2)CC1` [(S)-4-(6-(1-isopropylpiperidin-4-ylamino)-2-phenylpyrimidine-4-carboxamido)-5-oxo-5-(4-(pentyloxycarbonyl)piperazin-1-yl)pentanoic acid], 3700 nM. To `CCCCCOC(=O)N1CCN(C(=O)[C@H](CCC(=O)O)NC(=O)c2cc(OCCN(CC)CC)nc(-c3ccccc3)n2)CC1` [(S)-4-(6-(2-(diethylamino)ethoxy)-2-phenylpyrimidine-4-carboxamido)-5-oxo-5-(4-(pentyloxycarbonyl)piperazin-1-yl)pentanoic acid] belongs 15000 nM; to `CCCCCOC(=O)N1CCN(C(=O)[C@H](CCC(=O)O)NC(=O)c2cc(SCCO)nc(-c3ccccc3)n2)CC1` [(S)-4-(6-(2-hydroxyethylthio)-2-phenylpyrimidine-4-carboxamido)-5-oxo-5-(4-(pentyloxycarbonyl)piperazin-1-yl)pentanoic acid], above 10000 nM; to `CCCCCOC(=O)N1CCN(C(=O)[C@H](CCC(=O)O)NC(=O)c2cc(OCCOC)nc(-c3ccccc3)n2)CC1` [(S)-4-(6-(2-methoxyethoxy)-2-phenylpyrimidine-4-carboxamido)-5-oxo-5-(4-(pentyloxycarbonyl)piperazin-1-yl)pentanoic acid], 7900 nM. For `CCCCCOC(=O)N1CCN(C(=O)[C@H](CCC(=O)O)NC(=O)c2cc(NCCOC)nc(-c3ccccc3)n2)CC1` [(S)-4-(6-(2-methoxyethylamino)-2-phenylpyrimidine-4-carboxamido)-5-oxo-5-(4-(pentyloxycarbonyl)piperazin-1-yl)pentanoic acid] the value was 2600 nM; for `CCCCCOC(=O)N1CCN(C(=O)[C@H](CCC(=O)O)NC(=O)c2cc(NCCCN(C)C)nc(-c3ccccc3)n2)CC1` [(S)-4-(6-(3-(dimethylamino)propylamino)-2-phenylpyrimidine-4-carboxamido)-5-oxo-5-(4-(pentyloxycarbonyl)piperazin-1-yl)pentanoic acid], 2600 nM; for `CCCCCOC(=O)N1CCN(C(=O)[C@H](CCC(=O)O)NC(=O)c2cc(N3CC(OCC)C3)nc(-c3ccccc3)n2)CC1` [(S)-4-(6-(3-ethoxyazetidin-1-yl)-2-phenylpyrimidine-4-carboxamido)-5-oxo-5-(4-(pentyloxycarbonyl)piperazin-1-yl)pentanoic acid], 4100 nM. Take `CCCCCOC(=O)N1CCN(C(=O)[C@H](CCC(=O)O)NC(=O)c2cc(N3CC(O)C3)nc(-c3ccccc3)n2)CC1` [(S)-4-(6-(3-hydroxyazetidin-1-yl)-2-phenylpyrimidine-4-carboxamido)-5-oxo-5-(4-(pentyloxycarbonyl)piperazin-1-yl)pentanoic acid]: the IC50 came out at 3500 nM. To `CCCCCOC(=O)N1CCN(C(=O)[C@H](CCC(=O)O)NC(=O)c2cc(OCCCN3CCOCC3)nc(-c3ccccc3)n2)CC1` [(S)-4-(6-(3-morpholinopropoxy)-2-phenylpyrimidine-4-carboxamido)-5-oxo-5-(4-(pentyloxycarbonyl)piperazin-1-yl)pentanoic acid] belongs 8700 nM.

With `CCCCCOC(=O)N1CCN(C(=O)[C@H](CCC(=O)O)NC(=O)c2cc(N3CCC(CC(=O)N4CCC4)CC3)nc(-c3ccccc3)n2)CC1` [(S)-4-(6-(4-(2-(azetidin-1-yl)-2-oxoethyl)piperidin-1-yl)-2-phenylpyrimidine-4-carboxamido)-5-oxo-5-(4-(pentyloxycarbonyl)piperazin-1-yl)pentanoic acid], the IC50 is 1000 nM. To `CCCCCOC(=O)N1CCN(C(=O)[C@H](CCC(=O)O)NC(=O)c2cc(N3CCC(CC(=O)N(CC)CC)CC3)nc(-c3ccccc3)n2)CC1` [(S)-4-(6-(4-(2-(diethylamino)-2-oxoethyl)piperidin-1-yl)-2-phenylpyrimidine-4-carboxamido)-5-oxo-5-(4-(pentyloxycarbonyl)piperazin-1-yl)pentanoic acid] belongs 2600 nM; to `CCCCCOC(=O)N1CCN(C(=O)[C@H](CCC(=O)O)NC(=O)c2cc(N3CCN(CC(=O)N(C)C)CC3)nc(-c3ccccc3)n2)CC1` [(S)-4-(6-(4-(2-(dimethylamino)-2-oxoethyl)piperazin-1-yl)-2-phenylpyrimidine-4-carboxamido)-5-oxo-5-(4-(pentyloxycarbonyl)piperazin-1-yl)pentanoic acid], 530 nM. In the case of `CCCCCOC(=O)N1CCN(C(=O)[C@H](CCC(=O)O)NC(=O)c2cc(N3CCC(CCN(C)C)CC3)nc(-c3ccccc3)n2)CC1` [(S)-4-(6-(4-(2-(dimethylamino)ethyl)piperidin-1-yl)-2-phenylpyrimidine-4-carboxamido)-5-oxo-5-(4-(pentyloxycarbonyl)piperazin-1-yl)pentanoic acid], the concentration for half-maximal inhibition (IC50) was 400 nM. On to `CCCCCOC(=O)N1CCN(C(=O)[C@H](CCC(=O)O)NC(=O)c2cc(N3CCC(CC(=O)NCC)CC3)nc(-c3ccccc3)n2)CC1` [(S)-4-(6-(4-(2-(ethylamino)-2-oxoethyl)piperidin-1-yl)-2-phenylpyrimidine-4-carboxamido)-5-oxo-5-(4-(pentyloxycarbonyl)piperazin-1-yl)pentanoic acid], for which the IC50 was found to be 1600 nM.

Consider `CCCCCOC(=O)N1CCN(C(=O)[C@H](CCC(=O)O)NC(=O)c2cc(N3CCC(CC(=O)NC)CC3)nc(-c3ccccc3)n2)CC1` [(S)-4-(6-(4-(2-(methylamino)-2-oxoethyl)piperidin-1-yl)-2-phenylpyrimidine-4-carboxamido)-5-oxo-5-(4-(pentyloxycarbonyl)piperazin-1-yl)pentanoic acid], for which the half-inhibitory concentration (IC50) is 1100 nM. To `CCCCCOC(=O)N1CCN(C(=O)[C@H](CCC(=O)O)NC(=O)c2cc(N3CCC(CCN)CC3)nc(-c3ccccc3)n2)CC1` [(S)-4-(6-(4-(2-aminoethyl)piperidin-1-yl)-2-phenylpyrimidine-4-carboxamido)-5-oxo-5-(4-(pentyloxycarbonyl)piperazin-1-yl)pentanoic acid] belongs 620 nM; to `CCCCCOC(=O)N1CCN(C(=O)[C@H](CCC(=O)O)NC(=O)c2cc(N3CCC(OCCO)CC3)nc(-c3ccccc3)n2)CC1` [(S)-4-(6-(4-(2-hydroxyethoxy)piperidin-1-yl)-2-phenylpyrimidine-4-carboxamido)-5-oxo-5-(4-(pentyloxycarbonyl)piperazin-1-yl)pentanoic acid], 1300 nM; to `CCCCCOC(=O)N1CCN(C(=O)[C@H](CCC(=O)O)NC(=O)c2cc(N3CCC(OCCOC)CC3)nc(-c3ccccc3)n2)CC1` [(S)-4-(6-(4-(2-methoxyethoxy)piperidin-1-yl)-2-phenylpyrimidine-4-carboxamido)-5-oxo-5-(4-(pentyloxycarbonyl)piperazin-1-yl)pentanoic acid], 1400 nM. On to `CCCCCOC(=O)N1CCN(C(=O)[C@H](CCC(=O)O)NC(=O)c2cc(N3CCN(CCOC)CC3)nc(-c3ccccc3)n2)CC1` [(S)-4-(6-(4-(2-methoxyethyl)piperazin-1-yl)-2-phenylpyrimidine-4-carboxamido)-5-oxo-5-(4-(pentyloxycarbonyl)piperazin-1-yl)pentanoic acid], for which the IC50 amounted to 2200 nM. To `CCCCCOC(=O)N1CCN(C(=O)[C@H](CCC(=O)O)NC(=O)c2cc(N3CCC(CCOC)CC3)nc(-c3ccccc3)n2)CC1` [(S)-4-(6-(4-(2-methoxyethyl)piperidin-1-yl)-2-phenylpyrimidine-4-carboxamido)-5-oxo-5-(4-(pentyloxycarbonyl)piperazin-1-yl)pentanoic acid] belongs 6300 nM; to `CCCCCOC(=O)N1CCN(C(=O)[C@H](CCC(=O)O)NC(=O)c2cc(N3CCC(COCCOC)CC3)nc(-c3ccccc3)n2)CC1` [(S)-4-(6-(4-((2-methoxyethoxy)methyl)piperidin-1-yl)-2-phenylpyrimidine-4-carboxamido)-5-oxo-5-(4-(pentyloxycarbonyl)piperazin-1-yl)pentanoic acid], 2000 nM. For `CCCCCOC(=O)N1CCN(C(=O)[C@H](CCC(=O)O)NC(=O)c2cc(N3CCC(CNCC)CC3)nc(-c3ccccc3)n2)CC1` [(S)-4-(6-(4-((ethylamino)methyl)piperidin-1-yl)-2-phenylpyrimidine-4-carboxamido)-5-oxo-5-(4-(pentyloxycarbonyl)piperazin-1-yl)pentanoic acid] the value was 770 nM. For `CCCCCOC(=O)N1CCN(C(=O)[C@H](CCC(=O)O)NC(=O)c2cc(N3CCC(CNC)CC3)nc(-c3ccccc3)n2)CC1` [(S)-4-(6-(4-((methylamino)methyl)piperidin-1-yl)-2-phenylpyrimidine-4-carboxamido)-5-oxo-5-(4-(pentyloxycarbonyl)piperazin-1-yl)pentanoic acid] the value was 740 nM.

Source of the values: BindingDB's records for doi:10.1016/j.bmcl.2009.09.017 (Pfizer, 2009).
